Results on 93 compounds are retold here after PubChem BioAssay AID1508612.

Structures are written as SMILES.

The data set in a line: passive permeability, PAMPA, ADME assay (AID 1508612). The conditions noted are these: pH 7.4, 30.0 min, 50.0 µM.

What is called Papp is the rate of passage across a membrane or cell layer, normalised by area and donor concentration. High values mean ready permeation, low ones poor permeation. `CCS(=O)(=O)N1CC(CC#N)(n2cc(-c3ncnc4[nH]ccc34)cn2)C1`: the Papp stood at 11.1 ×10⁻⁶ cm/s.
Under `Cc1ccc(S(=O)(=O)Nc2cnccc2C(=O)Nc2nc(-c3ccncc3)cs2)cc1` stands 74.4 ×10⁻⁶ cm/s.
Take `COCCNC(=O)c1ccc(-c2ncc3cnc(-c4cccc(F)c4)cn23)cc1`: the Papp came to 405 ×10⁻⁶ cm/s.
Under `O=[S+]([O-])(Nc1ccc(C2CCNCC2)cc1)c1ccc(NCc2ccc(Br)cc2O)cc1` stands 6.3 ×10⁻⁶ cm/s.
On to `COc1ccc(OC)c(-c2nnc3n2N=C(c2c(OC)cccc2OC)CS3)c1`, for which the Papp is 617 ×10⁻⁶ cm/s.
Under `CCc1ccc(NC(=O)c2[nH]c(C)c(C(C)=O)c2C)cc1[S+](=O)([O-])Nc1ccccc1C#N` stands 74.2 ×10⁻⁶ cm/s.
Under `CCc1ccc(NC(=O)CSC2=Nc3ccccc3C3=NC(CC(=O)NCc4ccc5c(c4)OCO5)C(=O)N23)cc1` (stereo not drawn) stands under 1 ×10⁻⁶ cm/s; under `CCCC1=Nc2cc(C(=O)NC3CCCC3)ccc2Sc2ccc(C)cc21`, 662 ×10⁻⁶ cm/s; under `COc1cccc(CN(C)c2ccc([S+](=O)([O-])Nc3nccs3)cc2)c1O`, 868 ×10⁻⁶ cm/s.
Under `O=C(CCCc1ccc2cccnc2n1)NCc1cc(-c2ccc(F)c(C(F)(F)F)c2)no1` stands over 1000 ×10⁻⁶ cm/s; under `CCOc1cc2c(cc1OCC)CN(C(=O)c1cc3sccc3n1Cc1ccccc1)CC2`, over 1000 ×10⁻⁶ cm/s.
`CC(Cc1ccc(O)cc1)NCC(O)c1cc(O)cc(O)c1` (stereo not drawn) had a Papp of 1.9 ×10⁻⁶ cm/s.
With `COc1ccc(C)cc1NC(=O)c1cnc(-c2ccc(F)cc2)nc1-c1ccncc1`, the Papp turned out to be 130 ×10⁻⁶ cm/s.
`Cn1c(C(=O)NCCc2ccccn2)nc2nc(-c3ccccc3)c(Cl)cc21` gave a Papp of over 1000 ×10⁻⁶ cm/s.
Under `Cc1cccc2nc(NC3=NC(c4[nH]ncc4Cl)C4=C(CCCC4=O)N3)oc12` (stereo not drawn) stands 624 ×10⁻⁶ cm/s; under `Cc1nc2ccc(NC(=O)c3cc(S(=O)(=O)N(C)c4ccccc4)ccc3Cl)cc2s1`, 70 ×10⁻⁶ cm/s.
The compound `Cc1ccc(CN2C(=O)C(O)(CC(=O)c3ccc(C)cc3)c3ccccc32)cc1` (stereo not drawn) displayed a Papp of 802 ×10⁻⁶ cm/s.
As for `CCC(CC)c1cc([C@H]2CN3CC[C@H]2C[C@@H]3CNC(C)=O)nc(-c2ccncc2)n1`, the Papp is 994 ×10⁻⁶ cm/s. The Papp values of the last two compounds are within 1.5-fold of each other.
Under `O=C(O)c1ccc(N2C(=O)/C(=C/c3ccc(-c4ccc([N+](=O)[O-])cc4)o3)C=C2c2ccccc2)cc1` stands 34.3 ×10⁻⁶ cm/s.
The compound `CCOc1ccc(CCNC(=O)c2cc3cnccc3n2Cc2cccc(C)n2)cc1OCC` registered a Papp of 7.02 ×10⁻⁶ cm/s.
As for `O=C(O)Cn1c(C(=O)Nc2nc(-c3ccccc3Cl)cs2)cc2ccccc21`, the Papp was 21.5 ×10⁻⁶ cm/s.
Under `CC(=O)c1c(C)[nH]c(C(=O)Nc2ccc(C)c(S(=O)(=O)N3CCCCCC3)c2)c1C` stands 792 ×10⁻⁶ cm/s; under `OCc1ccc(-c2cc3c(ccn3Cc3cccnc3)c(C3=CCOCC3)n2)cc1`, 478 ×10⁻⁶ cm/s; under `O=C(O)c1cnc(-c2ccc(F)cc2)nc1-c1ccncc1`, under 1 ×10⁻⁶ cm/s.
Under `Cc1ccc(S(=O)(=O)Nc2ccccc2C(=O)Nc2ncc(-c3ccccc3)o2)cc1` stands 303 ×10⁻⁶ cm/s; under `Cc1ccc(S(=O)(=O)n2cc(C(=O)Nc3nc(-c4ccccc4)cs3)c3ccccc32)cc1`, 3.4 ×10⁻⁶ cm/s.
`O=C(O)c1cn(C2CC2)c2cc(N3C[C@@H]4C[C@H]3CN4)c(F)cc2c1=O`: the Papp is under 1 ×10⁻⁶ cm/s.
Under `CCOc1ccccc1N(CC(=O)Nc1cc(OC)ccc1OC)S(=O)(=O)c1ccccc1` stands 968 ×10⁻⁶ cm/s; under `CN1C(=O)c2ccccc2[S@](=O)c2ccc(C(=O)NCc3ccc(Br)cc3)cc21`, over 1000 ×10⁻⁶ cm/s; under `COc1ccc(-c2[nH]nc3ncc(-c4ccc(CO)cc4)nc23)cc1F`, 353 ×10⁻⁶ cm/s.
With `COc1cccc(NC(=O)c2cccc3c(=O)c4c([nH]c23)CCCC4)c1`, the apparent permeability coefficient (Papp) is over 1000 ×10⁻⁶ cm/s.
For `COc1ccccc1NS(=O)(=O)c1cccc(NC(=O)c2[nH]c(C)c(C(C)=O)c2C)c1`, the Papp amounted to 197 ×10⁻⁶ cm/s.
Under `O=[N+]([O-])c1cccc(CNc2ccc(S(=O)(=O)Nc3nccs3)cc2)c1O` stands 28.6 ×10⁻⁶ cm/s; under `CC1CCC(NC(=O)c2ccc3c(c2)N(Cc2ccccc2F)C(=O)c2ccccc2S3)CC1` (stereo not drawn), 2.7 ×10⁻⁶ cm/s; under `O=C(CNC12CC3CC(CC(C3)C1)C2)c1ccc(Cl)cc1`, 635 ×10⁻⁶ cm/s.
In turn, `COc1ccc(-n2nc(C3CCN(C(=O)Cc4ccc(F)cc4)CC3)[nH]c2=O)cc1` displayed a Papp of 540 ×10⁻⁶ cm/s.
Under `Cn1nnnc1Sc1ncnc2sccc12` stands 67.6 ×10⁻⁶ cm/s; under `CC1=C(C(=O)Nc2nncs2)C(c2ccccc2Br)N=C(Nc2nc3ccccc3o2)N1` (stereo not drawn), 128 ×10⁻⁶ cm/s; under `CCCn1cnc2cc(NCc3ccc(OC)cc3OC)ccc21`, over 1000 ×10⁻⁶ cm/s.
Under `COC(=O)c1cccc(NC(=O)c2cnc(-c3ccc(F)cc3)nc2-c2ccncc2)c1` stands over 1000 ×10⁻⁶ cm/s; under `NC(=O)C1CCN(c2nccc(-c3ccc(Br)cc3)n2)CC1`, 360 ×10⁻⁶ cm/s; under `CN(C)c1cccc(-c2ccnc(N3CCC(C(N)=O)CC3)n2)c1`, 333 ×10⁻⁶ cm/s.
In turn, `COc1ccccc1OCCNCC(O)COc1cccc2[nH]c3ccccc3c12` (stereo not drawn) showed a Papp of over 1000 ×10⁻⁶ cm/s.
Under `CN(C)C(=O)c1nc(-c2ccc(Cl)nc2)c2ccccn12` stands over 1000 ×10⁻⁶ cm/s; under `CNc1nccc(-c2cccc3ccccc23)n1`, 905 ×10⁻⁶ cm/s; under `O=S(=O)(Nc1nccs1)c1ccc(NCc2cccc(Br)c2O)cc1`, 72.7 ×10⁻⁶ cm/s.
Under `COc1cc2c(c(OC)c1OC)-c1ccc(SC)c(=O)cc1C(N)CC2` (stereo not drawn) stands over 1000 ×10⁻⁶ cm/s.
Under `CC(=O)c1c(C)[nH]c(C(=O)Nc2cccc([S+](=O)([O-])Nc3c(C)cccc3C)c2)c1C` stands 117 ×10⁻⁶ cm/s.
For `CC(Nc1ccc([S+](=O)([O-])Nc2nccs2)cc1)c1ccccc1` (stereo not drawn), the Papp amounted to 641 ×10⁻⁶ cm/s.
Under `CNc1cc(-c2nc(Nc3ccc(F)c(F)c3)c3ccccc3n2)ccn1` stands 257 ×10⁻⁶ cm/s; under `COc1ccc(NC2=C(c3ccc(C(F)(F)F)cc3)C(=O)c3ccccc32)cc1`, 82 ×10⁻⁶ cm/s; under `CC(C)NC(=O)N1C[C@@H]2C[C@H](C1)c1ccc(-c3cccc(C(F)(F)F)c3)c(=O)n1C2`, 189 ×10⁻⁶ cm/s.
Under `N#Cc1cccc(-c2nccc(-n3ccnc3)n2)c1` stands 492 ×10⁻⁶ cm/s; under `COc1ccc(Nc2cc3c(nc2OC)nc(CCc2ccccc2)n3C)cn1`, over 1000 ×10⁻⁶ cm/s.
Under `O=c1c2c([nH]c3ccc(Br)cc13)CCCC2` stands 62.4 ×10⁻⁶ cm/s; under `NC(=O)C1CCN(c2nc(-c3ccc(Cl)cc3)cs2)CC1`, 191 ×10⁻⁶ cm/s; under `CCOc1ccccc1N1CC(c2nc3ccccc3n2CCOc2ccc(C(C)(C)C)cc2)CC1=O` (stereo not drawn), 793 ×10⁻⁶ cm/s.
`Cc1cc(N)c2cc(NC(=O)Nc3ccc4nc(C)cc(N)c4c3)ccc2n1` returned a Papp of under 1 ×10⁻⁶ cm/s.
Under `Cc1ccccc1C(=O)N1CCc2cc(-c3ccnc(NC(=O)Cc4ccccc4)n3)ccc21` stands over 1000 ×10⁻⁶ cm/s; under `N#Cc1cnccc1-c1nc(Nc2ccc(F)c(F)c2)c2ccccc2n1`, 269 ×10⁻⁶ cm/s.
Under `COc1cc(/C=C2\C(=O)Nc3ccccc32)ccc1O` stands over 1000 ×10⁻⁶ cm/s; under `COc1ccc(-c2nc3ccc(C4=NNC(=O)CC4C)cc3[nH]2)cc1` (stereo not drawn), 228 ×10⁻⁶ cm/s; under `COc1cccc(CNc2ccc(S(=O)(=O)Nc3ccc(N4CCNCC4)nc3)cc2)c1O`, 10.7 ×10⁻⁶ cm/s.
Under `CCOC(=O)c1csc(NC(=O)c2ccncc2NS(=O)(=O)c2ccc(C)cc2)n1` stands 114 ×10⁻⁶ cm/s; under `FC(F)(F)c1ccccc1-c1nc(NCc2cccs2)c2ccccc2n1`, over 1000 ×10⁻⁶ cm/s.
The compound `COc1cccc(CNc2ccc(S(=O)(=O)Nc3nc4ccccc4[nH]3)cc2)c1O` yielded a Papp of 30.8 ×10⁻⁶ cm/s.
Under `Cc1cc(-c2nnc3n2CCCCC3)c(C)n1-c1ccc(Cl)c(Cl)c1` stands over 1000 ×10⁻⁶ cm/s; under `O=C(NCc1cccnc1)c1nc(-c2ccc(Cl)nc2)c2cnccn12`, 238 ×10⁻⁶ cm/s; under `COc1ccc(NC(=O)c2c(C)cccc2C)cc1S(=O)(=O)Nc1ccc(Br)cc1`, 581 ×10⁻⁶ cm/s.
Under `COc1ccc(S(=O)(=O)N2CCCCCC2)cc1NC(=O)Cc1n[nH]c(=O)c2ccccc12` stands under 1 ×10⁻⁶ cm/s; under `CNS(=O)(=O)c1cc(-c2nn3c(C)nnc3c3ccccc23)ccc1C`, 146 ×10⁻⁶ cm/s; under `CCN(CC)CCCC(C)Nc1cc(/C=C/c2ccccc2Cl)nc2cc(Cl)ccc12` (stereo not drawn), 833 ×10⁻⁶ cm/s.
On to `CS(=O)(=O)c1ccc(-c2csc(N3CCC(C(N)=O)CC3)n2)cc1`, for which the Papp was 74 ×10⁻⁶ cm/s.
In turn, `O=[S+]([O-])(Nc1ccc(N2CCNCC2)cc1)c1ccc(NCc2ccc(Br)cc2O)cc1` displayed a Papp of 7.93 ×10⁻⁶ cm/s.
Under `COc1ccnc(NC(=S)N2CCN(c3ccc(Cl)c(Cl)c3)CC2)c1` stands 601 ×10⁻⁶ cm/s.
Under `COc1cccc(Nc2nc(-c3ccncc3)nc3ccccc23)c1` stands over 1000 ×10⁻⁶ cm/s.
Under `Cc1ccc(C(=O)Nc2ccc3oc(-c4cccnc4)nc3c2)cc1[N+](=O)[O-]` stands 82.5 ×10⁻⁶ cm/s; under `CNC(=O)c1cc(Oc2ccc(NC(=O)Nc3ccc(Cl)c(C(F)(F)F)c3)c(F)c2)ccn1`, under 1 ×10⁻⁶ cm/s.
Consider `CC(C)c1ccccc1-c1ncc(F)c(NC2(c3ccc(-c4cccnc4)cc3)CC2)n1`, for which the Papp was over 1000 ×10⁻⁶ cm/s.
Under `Cc1ccccc1C(=O)N1CCc2cc(-c3nc(NC(=O)Cc4ccc5c(c4)OCCO5)sc3C)ccc21` stands 761 ×10⁻⁶ cm/s; under `Clc1ccc(C2=Nn3c(nnc3-c3ccncc3)SC2)cc1`, 372 ×10⁻⁶ cm/s; under `COc1cccc(CNc2ccc(S(=O)(=O)Nc3nc(C)c(C)s3)cc2)c1O`, 25.8 ×10⁻⁶ cm/s.
Under `Cc1cnc(-c2ccccc2C2COC2)nc1NCc1ccc(-c2cccnc2)cc1` stands 2.87 ×10⁻⁶ cm/s.
For the compound `O=C1c2ccccc2C2=Nc3ccccc3SC(c3ccc(Cl)cc3)C12` (stereo not drawn), the Papp is under 1 ×10⁻⁶ cm/s.
Under `NC(=O)C1CCN(c2nc(-c3ccccc3Cl)cs2)CC1` stands 517 ×10⁻⁶ cm/s; under `COc1ccc2[nH]cc(CCNC(=O)c3cnn(-c4ccc(C)cc4)c3C3CCN(C(=O)OC(C)(C)C)CC3)c2c1`, 153 ×10⁻⁶ cm/s.
Under `CCOc1ccc(CCNC(=O)c2ccccc2)cc1OCC` stands 580 ×10⁻⁶ cm/s.
Compound `O=C(Nc1ccc2c(N3CCCCC3)ncnc2c1)c1cc(F)cc(F)c1` gave a Papp of over 1000 ×10⁻⁶ cm/s.
Compound `COc1ncc(-c2n[nH]c3c2CC(=O)N(c2ccccc2)C3)cn1` registered a Papp of 33.5 ×10⁻⁶ cm/s.
Under `Cc1ccc(NS(=O)(=O)c2cccc(C(=O)O)c2)cc1S(=O)(=O)N1CCOCC1` stands 23.4 ×10⁻⁶ cm/s.
As for `COc1ccc2[nH]c(=O)c(-c3noc(-c4ccccc4)n3)cc2c1`, the Papp was found to be 760 ×10⁻⁶ cm/s.
`CCOc1cccc(C(=O)Nc2nc3c(s2)CC(C(C)(C)C)CC3)c1` (stereo not drawn) registered a Papp of under 1 ×10⁻⁶ cm/s.
Under `COc1ccc(C2c3c(oc4ccc(C)cc4c3=O)C(=O)N2CCCN2CCOCC2)cc1OC` (stereo not drawn) stands 403 ×10⁻⁶ cm/s.
